Source: ChEMBL document CHEMBL1143186, “Total synthesis and evaluation of [18F]MHMZ” (Bioorg Med Chem Lett, 2008)

Columns and labels:
[1] = biological target: 5-hydroxytryptamine receptor 2A (Homo sapiens, UniProt P28223); test: Binding affinity to 5HT2A receptor
[2] = biological target: 5-hydroxytryptamine receptor 2A (Rattus norvegicus, UniProt P14842); test: Displacement of [3H]MDL from rat 5HT2A receptor expressed in GF62 cells; assay type: cell-based
Brain [3] = test: Drug level in rat brain laminae 1-4 region; assay type: ADME, tissue-based; conditions: in vivo
Brain [4] = test: Drug level in rat brain lamina 5 region; assay type: ADME, tissue-based; conditions: in vivo
Laminae = test: Drug level in rat brain laminae 6a + 6b region; assay type: ADME, tissue-based; conditions: in vivo
Caudate-putamen = test: Drug level in rat brain caudate-putamen; assay type: ADME, tissue-based; conditions: in vivo
Nucleic Acid [5] = test: Ratio of drug level in laminae 1-4 region to cerebellum in rat; assay type: ADME, tissue-based; conditions: in vivo
Nucleic Acid [6] = test: Ratio of drug level in lamina 5 region to cerebellum in rat; assay type: ADME, tissue-based; conditions: in vivo
Nucleic Acid [7] = test: Ratio of drug level in laminae 6a + 6b region to cerebellum in rat; assay type: ADME, tissue-based; conditions: in vitro
Nucleic Acid [8] = test: Ratio of drug level in caudate-putamen to cerebellum in rat; assay type: ADME, tissue-based; conditions: in vitro
[9] = Metabolic stability in rat plasma assessed as unmetabolized fraction after 5 mins; assay type: ADME, cell-free; conditions: read-out: Stability
[10] = Metabolic stability in rat plasma assessed as unmetabolized fraction after 10 mins; assay type: ADME, cell-free; conditions: read-out: Stability
[11] = Metabolic stability in rat plasma assessed as unmetabolized fraction after 30 mins; assay type: ADME, cell-free; conditions: read-out: Stability
[12] = Metabolic stability in rat plasma assessed as unmetabolized fraction after 60 mins; assay type: ADME, cell-free; conditions: read-out: Stability

Sequence of 5-hydroxytryptamine receptor 2A (Rattus norvegicus, UniProt P14842) (P14842 whole entry): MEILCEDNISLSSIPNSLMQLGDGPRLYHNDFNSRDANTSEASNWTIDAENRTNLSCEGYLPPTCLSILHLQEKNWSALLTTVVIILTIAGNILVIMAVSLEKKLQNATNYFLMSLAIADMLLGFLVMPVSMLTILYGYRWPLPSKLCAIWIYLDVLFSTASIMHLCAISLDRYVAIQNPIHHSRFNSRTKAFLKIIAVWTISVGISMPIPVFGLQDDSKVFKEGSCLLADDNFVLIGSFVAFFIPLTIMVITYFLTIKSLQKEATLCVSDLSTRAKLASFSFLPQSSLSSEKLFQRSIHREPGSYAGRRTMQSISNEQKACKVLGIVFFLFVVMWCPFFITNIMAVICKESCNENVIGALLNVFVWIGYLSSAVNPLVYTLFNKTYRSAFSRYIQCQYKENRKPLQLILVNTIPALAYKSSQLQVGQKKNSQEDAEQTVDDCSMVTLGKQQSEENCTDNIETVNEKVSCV
Sequence of 5-hydroxytryptamine receptor 2A (Homo sapiens, UniProt P28223) (P28223 whole entry): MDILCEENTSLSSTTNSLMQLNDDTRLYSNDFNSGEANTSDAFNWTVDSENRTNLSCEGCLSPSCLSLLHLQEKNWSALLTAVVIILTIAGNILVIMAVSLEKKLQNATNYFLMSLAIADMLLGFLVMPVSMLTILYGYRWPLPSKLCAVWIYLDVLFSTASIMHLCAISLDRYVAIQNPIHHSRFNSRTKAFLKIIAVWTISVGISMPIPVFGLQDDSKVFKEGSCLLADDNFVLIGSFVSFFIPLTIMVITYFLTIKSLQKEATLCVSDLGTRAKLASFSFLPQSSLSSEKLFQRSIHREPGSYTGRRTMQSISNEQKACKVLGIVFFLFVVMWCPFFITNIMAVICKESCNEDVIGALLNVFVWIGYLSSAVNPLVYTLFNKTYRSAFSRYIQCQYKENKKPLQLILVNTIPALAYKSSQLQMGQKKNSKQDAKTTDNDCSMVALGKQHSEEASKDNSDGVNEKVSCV

Compound | Ki [1] [nM] | Ki [2] [nM] | Drug uptake (Brain [3]) [pmol/mm3] | Drug uptake (Brain [4]) [pmol/mm3] | Drug uptake (Laminae) [pmol/mm3] | Drug uptake (Caudate-putamen) [pmol/mm3] | Ratio (Nucleic Acid [5]) | Ratio (Nucleic Acid [6]) | Ratio (Nucleic Acid [7]) | Ratio (Nucleic Acid [8]) | remaining at 5 min [9] [%] | remaining at 10 min [10] [%] | remaining at 0.5 h [11] [%] | remaining at 1 h [12] [%]
O=C(c1ccc(F)cc1)C1CCN(CCn2c(=S)[nH]c3ccccc3c2=O)CC1 [ALTANSERIN] | 0.13 | 0.74 | – | – | – | – | – | – | – | – | – | – | – | –
COc1c(OCCF)cccc1C(O)C1CCN(CCc2ccc(F)cc2)CC1 (stereo not given) | – | 9 | – | – | – | – | – | – | – | – | – | – | – | –
COc1c(OCC[18F])cccc1C(O)C1CCN(CCc2ccc(F)cc2)CC1 (stereo not given) | – | – | 23.3 | 51.6 | 27.27 | 16.8 | 26.9 | 59.5 | 31.4 | 19.2 | 43 | 32 | 16 | 7
